Measurements: US12275731B2, “Azaindole inhibitors of wild-type and mutant forms of LRRK2” (DANA-FARBER CANCER INSTITUTE, INC., priority 2018, dated 2025)

Experiments:
Assay in all cases: KinomeScan profiling
Format in all cases: binding
[1] = target: CDK4 (Homo sapiens, UniProt P11802); conditions: CDK4, 1 μM; read-out: % control
Outline: (§1)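 Luminescence (RLU) was converted to percent of control, with DMSO set as 100% and a reference compound as 0%. Test compounds were run at 1 μM against 468 kinases. Kinases showing below 35% of control were scored as bound.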

[2] = target: CHEK2 (Homo sapiens, UniProt O96017); conditions: CHEK2, 1 μM; read-out: % control
Sequence of CHEK2 (O96017 whole entry): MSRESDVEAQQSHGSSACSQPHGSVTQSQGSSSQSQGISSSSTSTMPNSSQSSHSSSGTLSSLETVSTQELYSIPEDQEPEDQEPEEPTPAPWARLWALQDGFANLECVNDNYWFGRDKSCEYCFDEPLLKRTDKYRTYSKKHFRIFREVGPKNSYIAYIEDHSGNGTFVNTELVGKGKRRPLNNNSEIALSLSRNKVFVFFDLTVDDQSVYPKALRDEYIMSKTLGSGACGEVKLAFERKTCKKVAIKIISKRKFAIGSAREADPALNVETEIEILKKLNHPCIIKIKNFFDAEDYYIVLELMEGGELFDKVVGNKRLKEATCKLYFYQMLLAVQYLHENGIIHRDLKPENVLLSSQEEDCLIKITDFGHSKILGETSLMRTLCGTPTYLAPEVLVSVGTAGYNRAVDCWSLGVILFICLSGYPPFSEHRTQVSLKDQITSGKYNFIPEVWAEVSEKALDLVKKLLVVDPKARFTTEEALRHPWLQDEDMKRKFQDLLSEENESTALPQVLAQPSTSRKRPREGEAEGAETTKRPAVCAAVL
Outline: as §1

[3] = target: CLK4 (Homo sapiens, UniProt Q9HAZ1); conditions: CLK4, 1 μM; read-out: % control
Sequence of CLK4 (Q9HAZ1 whole entry): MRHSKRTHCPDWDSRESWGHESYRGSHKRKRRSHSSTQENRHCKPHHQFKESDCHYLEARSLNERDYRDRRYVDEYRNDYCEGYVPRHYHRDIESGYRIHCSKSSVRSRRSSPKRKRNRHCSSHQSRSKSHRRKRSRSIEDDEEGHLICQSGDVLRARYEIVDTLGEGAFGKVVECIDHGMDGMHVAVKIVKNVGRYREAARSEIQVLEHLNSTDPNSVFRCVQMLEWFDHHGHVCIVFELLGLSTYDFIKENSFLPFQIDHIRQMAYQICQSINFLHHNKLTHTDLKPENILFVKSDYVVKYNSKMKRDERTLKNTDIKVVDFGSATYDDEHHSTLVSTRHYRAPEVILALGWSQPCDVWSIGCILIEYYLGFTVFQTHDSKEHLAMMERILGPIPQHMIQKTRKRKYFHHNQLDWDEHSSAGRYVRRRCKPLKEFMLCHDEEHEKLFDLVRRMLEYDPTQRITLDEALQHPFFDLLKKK
Outline: as §1

[4] = target: T1, FLT3(D835V) (Homo sapiens, UniProt P36888, D835V); conditions: read-out: % control
T1 sequence (P36888 27-993 D835V): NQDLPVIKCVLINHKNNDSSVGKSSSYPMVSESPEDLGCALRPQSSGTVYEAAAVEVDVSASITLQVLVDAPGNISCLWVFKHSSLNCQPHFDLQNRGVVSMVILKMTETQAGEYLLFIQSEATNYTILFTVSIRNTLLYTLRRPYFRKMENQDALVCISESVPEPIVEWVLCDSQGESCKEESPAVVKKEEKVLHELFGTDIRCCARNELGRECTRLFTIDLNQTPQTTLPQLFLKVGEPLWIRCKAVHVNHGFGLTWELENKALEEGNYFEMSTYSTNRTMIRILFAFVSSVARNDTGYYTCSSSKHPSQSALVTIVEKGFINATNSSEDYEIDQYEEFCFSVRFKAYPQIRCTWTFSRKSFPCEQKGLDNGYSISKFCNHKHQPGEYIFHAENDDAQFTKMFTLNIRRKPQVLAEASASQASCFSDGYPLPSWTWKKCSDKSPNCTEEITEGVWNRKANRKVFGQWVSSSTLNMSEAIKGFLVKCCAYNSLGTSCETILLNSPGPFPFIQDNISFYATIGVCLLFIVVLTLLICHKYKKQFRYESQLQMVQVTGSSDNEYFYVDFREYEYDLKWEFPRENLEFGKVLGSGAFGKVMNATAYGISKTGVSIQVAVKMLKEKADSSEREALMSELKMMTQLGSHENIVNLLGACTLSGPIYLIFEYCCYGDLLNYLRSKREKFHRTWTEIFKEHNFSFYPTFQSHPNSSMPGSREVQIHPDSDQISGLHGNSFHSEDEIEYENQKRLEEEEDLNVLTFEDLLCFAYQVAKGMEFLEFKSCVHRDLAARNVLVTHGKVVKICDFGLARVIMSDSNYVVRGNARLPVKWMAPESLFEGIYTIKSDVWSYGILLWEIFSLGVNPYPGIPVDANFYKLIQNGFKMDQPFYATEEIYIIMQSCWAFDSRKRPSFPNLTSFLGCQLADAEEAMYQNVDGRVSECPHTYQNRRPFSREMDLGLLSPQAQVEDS
Outline: as §1

[5] = target: HCK (Homo sapiens, UniProt P08631); conditions: read-out: % control
Sequence of HCK (P08631 whole entry): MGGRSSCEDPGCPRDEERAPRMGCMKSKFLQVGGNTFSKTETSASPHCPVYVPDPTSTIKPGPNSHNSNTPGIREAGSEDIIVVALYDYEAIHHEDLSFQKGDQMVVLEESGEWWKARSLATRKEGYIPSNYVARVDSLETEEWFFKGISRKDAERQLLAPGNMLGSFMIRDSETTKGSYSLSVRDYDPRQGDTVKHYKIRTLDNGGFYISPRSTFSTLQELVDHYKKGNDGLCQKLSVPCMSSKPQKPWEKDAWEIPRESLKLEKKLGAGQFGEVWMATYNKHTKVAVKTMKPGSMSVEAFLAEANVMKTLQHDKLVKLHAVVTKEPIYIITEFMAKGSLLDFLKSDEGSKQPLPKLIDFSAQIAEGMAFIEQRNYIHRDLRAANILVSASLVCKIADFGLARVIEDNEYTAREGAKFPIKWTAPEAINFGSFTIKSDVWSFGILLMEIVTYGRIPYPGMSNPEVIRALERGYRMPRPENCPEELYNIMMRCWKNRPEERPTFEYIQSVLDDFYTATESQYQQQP
Outline: as §1

[6] = target: T2, NEK1 (Homo sapiens, UniProt Q96PY6); conditions: NEK1, 1 μM; read-out: % control
T2 sequence (Q96PY6 1-1258): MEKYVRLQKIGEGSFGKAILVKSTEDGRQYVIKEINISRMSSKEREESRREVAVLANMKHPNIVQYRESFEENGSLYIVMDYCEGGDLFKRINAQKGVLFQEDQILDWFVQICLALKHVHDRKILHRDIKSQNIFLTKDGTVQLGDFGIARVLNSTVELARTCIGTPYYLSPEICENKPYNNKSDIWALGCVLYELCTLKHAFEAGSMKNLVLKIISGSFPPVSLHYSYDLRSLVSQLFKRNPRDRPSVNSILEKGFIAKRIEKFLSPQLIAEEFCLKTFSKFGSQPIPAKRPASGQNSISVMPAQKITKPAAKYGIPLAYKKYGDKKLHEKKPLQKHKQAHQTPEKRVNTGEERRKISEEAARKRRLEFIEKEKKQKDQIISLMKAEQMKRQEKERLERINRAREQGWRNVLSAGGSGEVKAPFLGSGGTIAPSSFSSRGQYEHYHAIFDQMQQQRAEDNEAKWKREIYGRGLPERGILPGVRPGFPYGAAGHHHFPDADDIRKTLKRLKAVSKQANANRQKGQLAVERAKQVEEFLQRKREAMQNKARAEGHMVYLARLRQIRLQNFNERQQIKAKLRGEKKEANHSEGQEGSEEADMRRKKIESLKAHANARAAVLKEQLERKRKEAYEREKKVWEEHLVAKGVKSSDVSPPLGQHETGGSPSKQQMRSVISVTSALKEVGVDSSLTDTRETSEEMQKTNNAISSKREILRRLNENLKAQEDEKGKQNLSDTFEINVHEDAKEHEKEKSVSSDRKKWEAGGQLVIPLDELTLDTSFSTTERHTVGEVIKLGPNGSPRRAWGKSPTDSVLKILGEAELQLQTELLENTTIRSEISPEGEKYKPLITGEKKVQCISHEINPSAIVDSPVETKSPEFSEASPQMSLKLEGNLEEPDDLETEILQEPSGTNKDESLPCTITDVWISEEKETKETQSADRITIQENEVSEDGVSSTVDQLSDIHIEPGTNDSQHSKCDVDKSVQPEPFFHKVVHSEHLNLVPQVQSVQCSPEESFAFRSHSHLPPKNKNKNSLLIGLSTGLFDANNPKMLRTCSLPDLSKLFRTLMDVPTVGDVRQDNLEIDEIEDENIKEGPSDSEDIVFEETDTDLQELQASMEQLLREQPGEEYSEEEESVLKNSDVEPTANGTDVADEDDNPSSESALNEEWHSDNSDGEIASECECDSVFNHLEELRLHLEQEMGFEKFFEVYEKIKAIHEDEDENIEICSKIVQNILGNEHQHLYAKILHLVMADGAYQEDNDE
Outline: as §1

[7] = target: T3, PIM3 (Homo sapiens, UniProt Q86V86); conditions: PIM3, 1 μM; read-out: % control
T3 construct: purchased KinomeScan® (panel service)
Outline: as §1

[8] = target: ROCK2 (Homo sapiens, UniProt O75116); conditions: ROCK2, 1 μM; read-out: % control
Sequence of ROCK2 (O75116 whole entry): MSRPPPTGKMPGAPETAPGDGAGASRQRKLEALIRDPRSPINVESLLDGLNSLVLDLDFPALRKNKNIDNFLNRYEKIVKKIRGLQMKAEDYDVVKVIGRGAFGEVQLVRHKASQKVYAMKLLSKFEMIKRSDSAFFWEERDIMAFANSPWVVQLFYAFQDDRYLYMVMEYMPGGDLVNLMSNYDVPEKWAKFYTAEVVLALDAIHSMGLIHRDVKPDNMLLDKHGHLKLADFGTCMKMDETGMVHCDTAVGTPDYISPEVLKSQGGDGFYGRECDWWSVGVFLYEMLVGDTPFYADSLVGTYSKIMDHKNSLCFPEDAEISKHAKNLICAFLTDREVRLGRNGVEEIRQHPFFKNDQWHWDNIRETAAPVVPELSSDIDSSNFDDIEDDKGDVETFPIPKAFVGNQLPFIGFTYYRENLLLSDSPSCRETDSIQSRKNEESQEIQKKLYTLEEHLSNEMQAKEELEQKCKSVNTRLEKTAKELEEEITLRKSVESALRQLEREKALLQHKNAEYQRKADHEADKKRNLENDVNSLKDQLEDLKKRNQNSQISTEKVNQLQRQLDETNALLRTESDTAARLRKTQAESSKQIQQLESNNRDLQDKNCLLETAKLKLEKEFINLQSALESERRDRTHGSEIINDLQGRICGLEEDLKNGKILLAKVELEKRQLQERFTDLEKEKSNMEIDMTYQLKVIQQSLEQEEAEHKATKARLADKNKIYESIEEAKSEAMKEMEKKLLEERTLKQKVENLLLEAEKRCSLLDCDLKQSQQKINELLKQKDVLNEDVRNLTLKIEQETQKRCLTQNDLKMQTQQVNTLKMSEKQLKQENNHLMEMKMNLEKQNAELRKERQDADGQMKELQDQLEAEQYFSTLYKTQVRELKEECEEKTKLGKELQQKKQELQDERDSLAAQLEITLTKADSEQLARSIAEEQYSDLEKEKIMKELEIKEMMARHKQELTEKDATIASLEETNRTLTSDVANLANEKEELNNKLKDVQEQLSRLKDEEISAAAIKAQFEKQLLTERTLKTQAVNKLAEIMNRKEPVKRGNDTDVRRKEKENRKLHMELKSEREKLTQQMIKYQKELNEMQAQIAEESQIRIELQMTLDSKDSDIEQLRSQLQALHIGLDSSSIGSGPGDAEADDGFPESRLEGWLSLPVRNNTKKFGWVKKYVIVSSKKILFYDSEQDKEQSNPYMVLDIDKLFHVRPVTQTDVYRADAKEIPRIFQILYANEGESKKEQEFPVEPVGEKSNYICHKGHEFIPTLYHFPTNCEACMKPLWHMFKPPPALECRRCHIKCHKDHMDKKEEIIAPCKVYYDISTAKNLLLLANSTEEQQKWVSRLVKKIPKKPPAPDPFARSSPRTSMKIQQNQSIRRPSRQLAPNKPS
Outline: as §1

[9] = target: VRK2 (Homo sapiens, UniProt Q86Y07); conditions: VRK2, 1 μM; read-out: % control
Sequence of VRK2 (Q86Y07 whole entry): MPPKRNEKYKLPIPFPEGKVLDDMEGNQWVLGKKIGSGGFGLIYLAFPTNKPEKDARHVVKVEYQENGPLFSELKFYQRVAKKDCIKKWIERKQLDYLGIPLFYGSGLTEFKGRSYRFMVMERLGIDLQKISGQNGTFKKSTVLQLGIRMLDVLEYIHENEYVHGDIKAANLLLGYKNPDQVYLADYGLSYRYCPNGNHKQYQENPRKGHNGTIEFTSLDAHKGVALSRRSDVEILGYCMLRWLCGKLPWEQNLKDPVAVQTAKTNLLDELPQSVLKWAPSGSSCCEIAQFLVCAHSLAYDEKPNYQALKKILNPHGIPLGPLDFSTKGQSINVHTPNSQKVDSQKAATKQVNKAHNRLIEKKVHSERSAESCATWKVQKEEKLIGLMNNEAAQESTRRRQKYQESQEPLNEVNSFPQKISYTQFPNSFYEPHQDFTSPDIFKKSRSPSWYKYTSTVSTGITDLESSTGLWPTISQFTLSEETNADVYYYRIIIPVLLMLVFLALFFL
Outline: as §1

Sequence of CDK4 (P11802 whole entry): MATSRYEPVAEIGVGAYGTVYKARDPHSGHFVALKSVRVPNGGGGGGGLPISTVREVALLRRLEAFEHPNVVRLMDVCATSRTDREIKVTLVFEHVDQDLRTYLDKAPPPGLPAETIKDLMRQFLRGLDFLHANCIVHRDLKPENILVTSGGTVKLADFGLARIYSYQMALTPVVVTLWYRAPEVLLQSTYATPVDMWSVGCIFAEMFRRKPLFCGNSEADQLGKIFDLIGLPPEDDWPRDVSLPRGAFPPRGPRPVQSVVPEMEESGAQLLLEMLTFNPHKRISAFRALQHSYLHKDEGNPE

Row | Structure (SMILES) | remaining binding at 1 µM [1] [%] | remaining binding at 1 µM [2] [%] | remaining binding at 1 µM [3] [%] | remaining binding at 1 µM [4] [%] | remaining binding at 1 µM [5] [%] | remaining binding at 1 µM [6] [%] | remaining binding at 1 µM [7] [%] | remaining binding at 1 µM [8] [%] | remaining binding at 1 µM [9] [%]
1 | CNc1c(-c2ccc(C(=O)N3CCC(N4CCOCC4)CC3)cc2)cnc2[nH]cc(Cl)c12 [Compound 96, (4-(3-chloro-4-(methylamino)-1H-pyrrolo[2,3-b]pyridin-5-yl)phenyl)(4-morpholinopiperidin-1-yl)methanone] | 98 | 22 | 11 | 2.9 | 100 | 100 | 100 | 1.4 | 79
2 | O=C(c1ccc(-c2cnc3[nH]cc(Cl)c3c2NC2CCCC2)cc1)N1CCC(N2CCOCC2)CC1 [Compound 101, (4-(3-chloro-4-(cyclopentylamino)-1H-pyrrolo[2,3-b]pyridin-5-yl)phenyl)(4-morpholinopiperidin-1-yl)methanone] | 100 | 92 | 42 | 6.4 | 96 | 100 | 96 | 81 | 100
3 | CNc1c(-c2cnn([C@H]3CCN(C(C)=O)C[C@@H]3F)c2)cnc2[nH]cc(Cl)c12 [Compound 77, 1-((3S,4S)-4-(4-(3-chloro-4-(methylamino)-1H-pyrrolo[2,3-b]pyridin-5-yl)-1H-pyrazol-1-yl)-3-fluoropiperidin-1-yl)ethan-1-one] | 85 | 56 | 72 | 0.5 | 100 | 96 | 99 | 8.9 | 66
